# In patent US20130296228A1, “EFFLUX PUMP INHIBITORS” (priority 2010, published 2013):
# Where two headings read alike, the source gives them in different places.
# Columns and labels:
# [1] = test system: highly resistant P. aeruginosa strains; assay: MIC; format: cell-based; conditions: highly resistant P. aeruginosa strains used for infecting animals
# [2] = test system: P. aeruginosa 23587; assay: Diameter of zone of inhibition of antimicrobial agents with or without efflux pump inhibitor; format: cell-based
# Text: Since RND efflux pumps operate by utilizing energy in […], metabolic inhibitor, sodium azide brings about MDR RND pump inhibition by causing energy deprivation.
# [3] = test system: P. aeruginosa 2301; assay: Survival of high density inoculation in MHA medium; format: cell-based; conditions: high density inoculation 2-5 × 10^9 CFU/ml; 20 mcg/ml in MHA medium
# Text: In a most surprising manner, the combination of ceftazidime and azithromycin and tigecycline respectively brought about more than 7 log reduction in the bacterial count as compared to individual effects in highly resistant Pseudomonas strain. Moreover in a very unusual and surprising manner this tremendous bactericidal effect is taking place at concentrations much below than their individual inhibitory concentrations. […] It is also likely that ceftazidime interacts with outer membrane porins and acts as a porin modulator. Bacalum et al. have shown that ceftazidime binds to outer membrane porins with high affinity (Bacalum et al. Romanian. J. Biophys., 19, 105-116, 2009).
# [4] = test system: outer membrane porins; conditions: Bacalum et al. 2009; cited from earlier work
# [5] = test system: MDR P. aeruginosa; assay: Enhanced killing: viable count over time; format: cell-based; conditions: for killing effect of the agent individually: quinolone arginine salt 8 μg/ml, ceftazidime 8 and 16 μg/ml
# Protocol: Table 4 results of efflux pump inhibition based cidal synergy between S-(−)-9-Fluoro-8-(4-hydroxy-piperidin-1-yl)-5-methyl-6,7-dihydro-1-oxo-1H,5H-benzo[i,j]quinolizine-2-carboxylic acid L-arginine salt tetrahydrate nd ceftazidime. Potent cidal synergy is observed between S-(−)-9-Fluoro-8-(4-hydroxy-piperidin-1-yl)-5-methyl-6,7-dihydro-1-oxo-1H,5H-benzo[i,j]quinolizine-2-carboxylic acid L-arginine salt tetrahydrate (concentration, 8 μg/ml) and ceftazidime (concentration, 8 and 16 μg/ml). These concentrations are at least 4 times lower than their MIC. […] Thus the efflux pump inhibition based synergy is not just growth inhibitory but also, most importantly, imparts extensive killing of the pathogen.
# [6] = test system: MDR clinical isolate of P. aeruginosa 2301; assay: Systemic infection in mice, % survival; format: in vivo; conditions: for % survival: mice; for protection of infected animals, agent individually: quinolone arginine salt 50 mg/kg, ceftazidime 300 mg/kg
# [7] = test system: P. aeruginosa 23587; assay: Survival of high density inoculation in MHA medium; format: cell-based; conditions: high density inoculation 2-5 × 10^9 CFU/ml
# [8] = test system: P. aeruginosa 2301; assay: Diameter of zone of inhibition of antimicrobial agents with or without efflux pump inhibitor; format: cell-based; conditions: for Diameter of zone of inhibition: P. aeruginosa 2301
structure (smiles),measurement,setting,value
"CC(C)(O/N=C(\C(=O)N[C@@H]1C(=O)N2C(C(=O)[O-])=C(C[n+]3ccccc3)CS[C@H]12)c1csc(N)n1)C(=O)O [Ceftazidime, ceftazidime]",MIC,"[1]; Pseudomonas aeruginosa, read-out: MIC",> 32 µg/mL
same,"inhibition of MDR RND efflux pumps, concluded from potentiation",[2]; clinical isolates of P. aeruginosa,inhibit RND pumps
same,CFU/ml at 48 h,[3],>5 × 10^9 CFU/ml
same,binding to outer membrane porins,[4],high affinity
same,viable count,"[5]; 8 μg/ml, 0 h",6.11 Log CFU/ ml
same,viable count,"[5]; 8 μg/ml, 24 h",8.64 Log CFU/ ml
same,viable count,"[5]; 8 μg/ml, 48 h",9.3 Log CFU/ ml
same,viable count,"[5]; 16 μg/ml, 0 h",6.11 Log CFU/ ml
same,viable count,"[5]; 16 μg/ml, 24 h",5.30 Log CFU/ ml
same,viable count,"[5]; 16 μg/ml, 48 h",9.2 Log CFU/ ml
same,killing effect of the agent individually,[5],ineffective
same,% survival,"[6]; Table 5, 300 mg/kg BID × 1 day, Subcutaneous",16.6%
same,% survival,"[6]; Table 7, 100 mg/kg BID × 1 day, Oral",16.6%
same,% survival,"[6]; Table 7, 200 mg/kg BID × 1 day, Oral",16.6%
same,"protection of infected animals, agent individually",[6],could not protect
same,CFU/ml at 48 h,[7]; 64 mcg/ml in MHA medium,>5 × 10^9 CFU/ml
"C[C@H]1CCc2c(N3CCC(O)CC3)c(F)cc3c(=O)c(C(=O)O)cn1c23.N=C(N)NCCC[C@H](N)C(=O)O.O.O.O.O [S-(−)-9-Fluoro-8-(4-hydroxy-piperidin-1-yl)-5-methyl-6,7-dihydro-1-oxo-1H,5H-benzo[i,j]quinolizine-2-carboxylic acid L-arginine salt tetrahydrate]",MIC,[1],16 µg/mL
same,change of activity on addition of sodium azide,[2],potentiated
same,change of activity in the presence of cefepime and ceftazidime,[2]; Example 3,significant potentiation
same,Diameter of zone of inhibition,"[2]; Table 1, P. aeruginosa 23587, +PAN (20 μg/ml), 4 μg/well",30 m.m.
same,Diameter of zone of inhibition,"[2]; Table 1, P. aeruginosa 23587, +PAN (20 μg/ml), 8 μg/well",34 m.m.
same,Diameter of zone of inhibition,"[2]; Table 1, P. aeruginosa 23587, +PAN (20 μg/ml), 16 μg/well",35 m.m.
same,Diameter of zone of inhibition,"[2]; Table 1, P. aeruginosa 23587, Control, 4 μg/well",Nil
same,Diameter of zone of inhibition,"[2]; Table 1, P. aeruginosa 23587, Control, 8 μg/well",12 m.m.
same,Diameter of zone of inhibition,"[2]; Table 1, P. aeruginosa 23587, Control, 16 μg/well",15 m.m.
same,Diameter of zone of inhibition,"[2]; Table 2, P. aeruginosa (23587), +Reserpine (25 μg/ml), 8 μg/well",Nil
same,Diameter of zone of inhibition,"[2]; Table 2, P. aeruginosa (23587), +Reserpine (25 μg/ml), 16 μg/well",11 m.m.
same,Diameter of zone of inhibition,"[2]; Table 2, P. aeruginosa (23587), +Reserpine (25 μg/ml), 32 μg/well",15 m.m.
same,Diameter of zone of inhibition,"[2]; Table 2, P. aeruginosa (23587), +sodium azide (10 μg/ml), 8 μg/well",12 m.m.
same,Diameter of zone of inhibition,"[2]; Table 2, P. aeruginosa (23587), +sodium azide (10 μg/ml), 16 μg/well",15 m.m.
same,Diameter of zone of inhibition,"[2]; Table 2, P. aeruginosa (23587), +sodium azide (10 μg/ml), 32 μg/well",20 m.m.
same,Diameter of zone of inhibition,"[2]; Table 2, P. aeruginosa (23587), Control, 8 μg/well",Nil
same,Diameter of zone of inhibition,"[2]; Table 2, P. aeruginosa (23587), Control, 16 μg/well",11 m.m.
same,Diameter of zone of inhibition,"[2]; Table 2, P. aeruginosa (23587), Control, 32 μg/well",15 m.m.
same,Diameter of zone of inhibition,"[2]; Table 3, P. aeruginosa 23587, +Cefepime (1 μg/ml), 8 μg/Well",12 m.m.
same,Diameter of zone of inhibition,"[2]; Table 3, P. aeruginosa 23587, +Cefepime (1 μg/ml), 16 μg/Well",18 m.m.
same,Diameter of zone of inhibition,"[2]; Table 3, P. aeruginosa 23587, +Cefepime (1 μg/ml), 32 μg/Well",24 m.m.
same,Diameter of zone of inhibition,"[2]; Table 3, P. aeruginosa 23587, +Ceftazidime (1 μg/ml), 8 μg/Well",20 m.m.
same,Diameter of zone of inhibition,"[2]; Table 3, P. aeruginosa 23587, +Ceftazidime (1 μg/ml), 16 μg/Well",25 m.m.
same,Diameter of zone of inhibition,"[2]; Table 3, P. aeruginosa 23587, +Ceftazidime (1 μg/ml), 32 μg/Well",33 m.m.
same,Diameter of zone of inhibition,"[2]; Table 3, P. aeruginosa 23587, Control, 8 μg/Well",9 m.m.
same,Diameter of zone of inhibition,"[2]; Table 3, P. aeruginosa 23587, Control, 16 μg/Well",14.5 m.m.
same,Diameter of zone of inhibition,"[2]; Table 3, P. aeruginosa 23587, Control, 32 μg/Well",19.5 m.m.
same,change of activity in the presence of PAN,[2]; clinical isolates P. aeruginosa 23587 and P. aeruginosa 2301,Synergistic enhancement
same,change of activity in the presence of cefepime and ceftazidime,[8]; Example 6,significant potentiation
same,Diameter of zone of inhibition,"[8]; Table 1, +PAN (20 μg/ml), 4 μg/well",25 m.m.
same,Diameter of zone of inhibition,"[8]; Table 1, +PAN (20 μg/ml), 8 μg/well",32 m.m.
same,Diameter of zone of inhibition,"[8]; Table 1, +PAN (20 μg/ml), 16 μg/well",38 m.m.
same,Diameter of zone of inhibition,"[8]; Table 1, Control, 4 μg/well",15.5 m.m.
same,Diameter of zone of inhibition,"[8]; Table 1, Control, 8 μg/well",20 m.m.
same,Diameter of zone of inhibition,"[8]; Table 1, Control, 16 μg/well",23.5 m.m.
same,Diameter of zone of inhibition,"[8]; Table 6, +Cefepime (2 μg/ml), 8 μg/Well",12 m.m.
same,Diameter of zone of inhibition,"[8]; Table 6, +Cefepime (2 μg/ml), 16 μg/Well",18 m.m.
same,Diameter of zone of inhibition,"[8]; Table 6, +Cefepime (2 μg/ml), 32 μg/Well",24 m.m.
same,Diameter of zone of inhibition,"[8]; Table 6, +Ceftazidime (0.5 μg/ml), 8 μg/Well",20 m.m.
same,Diameter of zone of inhibition,"[8]; Table 6, +Ceftazidime (0.5 μg/ml), 16 μg/Well",25 m.m.
same,Diameter of zone of inhibition,"[8]; Table 6, +Ceftazidime (0.5 μg/ml), 32 μg/Well",33 m.m.
same,Diameter of zone of inhibition,"[8]; Table 6, Control, 8 μg/Well",9 m.m.
same,Diameter of zone of inhibition,"[8]; Table 6, Control, 16 μg/Well",14.5 m.m.
same,Diameter of zone of inhibition,"[8]; Table 6, Control, 32 μg/Well",19.5 m.m.
same,viable count,"[5]; 8 μg/ml, 0 h",6.11 Log CFU/ ml
same,viable count,"[5]; 8 μg/ml, 24 h",8.64 Log CFU/ ml
same,viable count,"[5]; 8 μg/ml, 48 h",9.4 Log CFU/ ml
same,viable count,"[5]; 16 μg/ml, 0 h",6.11 Log CFU/ ml
same,viable count,"[5]; 16 μg/ml, 24 h",4.30 Log CFU/ ml
same,viable count,"[5]; 16 μg/ml, 48 h",<3.0 Log CFU/ ml
same,killing effect of the agent individually,[5],ineffective
same,% survival,"[6]; Table 5, 50 mg/kg BID × 1 day, Subcutaneous",0%
same,% survival,"[6]; Table 5, 75 mg/kg BID × 1 day, Subcutaneous",33.3%
same,% survival,"[6]; Table 5, 100 mg/kg BID × 1 day, Subcutaneous",100%
same,"protection of infected animals, agent individually",[6],could not protect
same,CFU/ml at 48 h,[7]; 32 mcg/ml in MHA medium,>5 × 10^9 CFU/ml
